{
  "source": "patent US20240148765A1",
  "about": "“COMPOSITIONS AND METHODS FOR TREATING AND/OR PREVENTING THERAPY-RELATED CARDIOMYOPATHY ASSOCIATED WITH NEUTROPHIL INFILTRATION” (University of Virginia Patent Foundation, priority 2021, published 2024)",
  "key": {"[1]": {"tested_on": "myeloid-specific Trp53-deficient mice (Lyz2^Cre/+Trp53^fl/fl)", "settings": "mouse, in vivo", "quoted_text": "(§3) Mice. Wild-type mice (Cd45.2), Trp53-insufficient mice, Trp53^R27OH mice, Trp53-floxed mice, Lyz2-Cre mice, Pep Boy mice (Cd45.1), and Ccr2^gfp/gfp mice were obtained from The Jackson Laboratory (stock 000664, 002103, 008182, 008462, 004781, 002014, and 027619, respectively). All strains are C57BL/6J background. Mice with myeloid-restricted Trp53 ablation were generated by crossing Trp53-floxed mice (Trp53^fl/fl) with Lyz2-Cre mice. Male mice were used for both in vivo and in vitro experiments unless otherwise noted. Mice were housed in a specific pathogen-free animal facility and given food and water ad libitum on 12-hour dark/light schedule.\n(§4) Doxorubicin administration. Pattern 1: adoptive BMT mice were injected with doxorubicin 6 weeks after BMT using a model of therapy-related clonal hematopoiesis (Wang et al., 2020) involving 3 rounds of 2 mg/kg i.p. injection, with 3 weeks between each round. Pattern 2: competitive BMT mice, Trp53-Myelo-KO mice, Ccr2^gfp/gfp mice, and mice in neutrophil depletion and neutrophil recruitment inhibition studies were injected with doxorubicin with a dose of 15 μg/g (body weight) split into 3 injections at indicated time points. […]\n(§5) Quantitative RT-PCR. […] Gene expression was calculated relative to 36b4 and normalized to controls. Data were calculated by AACt approach."}, "[2]": {"tested_on": "myeloid-specific Trp53-deficient mice (Lyz2^Cre/+Trp53^fl/fl)", "assay": "Dox-induced cardiotoxicity in myeloid-specific Trp53-deficient mice", "settings": "Lyz2^Cre/+Trp53^fl/fl vs control mice treated with Dox", "quoted_text": "as §3, §4, §5"}, "C57BL6/J wild type mice": {"tested_on": "C57BL6/J wild type mice", "assay": "Single bolus of Dox in wild-type mice; cardiac parameters, blood counts, cardiac-resident leukocytes", "format": "in vivo", "description": "(§1) Doxorubicin administration.\n(§2) Hematopoietic cell parameter measurements. […] Hematopoietic parameters were analyzed using an Element HT5 Veterinary Hematology Analyzer (Heska, Loveland, Colorado, United States of America)."}, "[3]": {"tested_on": "mice transplanted with wild-type or Trp53 mutant cells", "experimental": "Doxorubicin administration. Pattern 1: adoptive BMT mice were injected with doxorubicin 6 weeks after BMT using a model of therapy-related clonal hematopoiesis (Wang et al., 2020) involving 3 rounds of 2 mg/kg i.p. injection, with 3 weeks between each round. Pattern 2: competitive BMT mice, Trp53-Myelo-KO mice, Ccr2^gfp/gfp mice, and mice in neutrophil depletion and neutrophil recruitment inhibition studies were injected with doxorubicin with a dose of 15 μg/g (body weight) split into 3 injections at indicated time points. Pattern 3: wild-type mice were injected with a single dose of doxorubicin (15 μg/g) at indicated time points.\nEchocardiography. Cardiac function was assessed before and after Dox administration at indicated time points using a Vevo 2100 ultrasound system equipped with MS400D probe (FUJIFILM VisualSonics Inc., Toronto, Ontario, Canada). Echocardiography was performed as described in Wang et al., 2019. Briefly, mice were anesthetized with isoflurane at a concentration of 5% (induction phase) and 1-1.5% (maintenance phase). Each animal was placed on the heating table in a supine position with the extremities taped to the table through four electrocardiography leads. Chest fur was removed with a chemical hair remover, and ultrasound gel was applied to the thorax surface to improve the visibility of the cardiac chambers. Left ventricular diameter at end-diastole (LVDd, mm), left ventricular diameter at end-systole (LVDs, mm), posterior wall thickness in diastole (PWTd, mm), and fractional shortening (FS, %) were measured from M-mode images obtained by short-axis view visualizing both mid papillary muscles. Measurements and analysis were performed by two individuals who were blinded to the identity of the experimental groups of mice using a Vevo Lab software (FUJIFILM VisualSonics Inc.)."}, "Ccr2-deficient mice": {"tested_on": "Ccr2-deficient mice", "assay": "Dox-induced cardiac toxicity in Ccr2-deficient mice", "format": "in vivo", "settings": "Ccr2-deficient relative to wild-type mice, 15 μg/g split into 3 injections, 4 weeks", "text": "Mice. […] All strains are C57BL/6J background.\nas §1"}, "[4]": {"tested_on": "Trp53 mutant hematopoietic cells", "assay": "Adoptive bone marrow transplantation model of Trp53 clonal hematopoiesis with cycles of Dox; flow cytometry chimerism and blood counts", "format": "in vivo, mice", "description": "Non-myeloablative bone marrow transplantation.\nas §1, §2"}, "[5]": {"tested_on": "lethally irradiated mice transplanted with Trp53-heterozygous cells", "assay": "Dox cardiotoxicity in myeloablative (competitive) BMT mice, 30% Trp53^+/− or wild-type cells", "description": "as §1\nQuantitative RT-PCR. Mouse total RNA was isolated using QIAzol reagent (Catalog No. 79306; Qiagen, Inc., Germantown, Maryland, United States of America), and was purified on the QIAcube. 1 μg RNA was reverse transcribed with a High-capacity cDNA Reverse Transcription Kit (Catalog No. 4368814; Thermo Fisher Scientific). qRT-PCR was performed with POWERUP™ SYBR™ Green reagent (Catalog No. 4367659; Thermo Fisher Scientific) in a QUANTSTUDIO™ 6 Flex PCR system (Thermo Fisher Scientific). Gene expression was calculated relative to 36b4 and normalized to controls. Data were calculated by AACt approach."}, "CXCR2": {"molecular_target": "T1, CXCR2 (Mus musculus, UniProt P35343)", "T1 construct": "from tissue; host or cells: whole animal: wild-type C57BL/6J mice (receptor on the animals' own neutrophils)", "T1 sequence (P35343 1-359)": "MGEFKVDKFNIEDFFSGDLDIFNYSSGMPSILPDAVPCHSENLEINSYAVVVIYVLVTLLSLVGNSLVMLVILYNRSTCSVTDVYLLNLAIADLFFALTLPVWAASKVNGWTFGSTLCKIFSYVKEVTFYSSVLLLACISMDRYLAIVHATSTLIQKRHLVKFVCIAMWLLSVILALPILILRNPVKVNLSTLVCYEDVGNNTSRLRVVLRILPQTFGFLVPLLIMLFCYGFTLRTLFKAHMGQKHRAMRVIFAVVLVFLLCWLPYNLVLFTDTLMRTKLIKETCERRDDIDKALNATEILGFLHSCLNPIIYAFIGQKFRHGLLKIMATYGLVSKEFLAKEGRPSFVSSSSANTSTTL", "assay": "CXCR2 inhibitor SB265610 in Dox-treated wild-type mice", "format": "in vivo", "settings": "2 mg/kg/day i.p.", "description": "as §1\nSB265610 (CXCR2 inhibitor) administration. SB265610 (1-(2-Bromophenyl)-3-(4-cyano-1H-benzo[d] [1,2,3]triazol-7-yl)urea, N-(2-Bromophenyl)-N′-(7-cyano-1H-benzotriazol-4-yl)urea; Catalog No. SML0421; Sigma-Aldrich, St. Louis, Missouri, United States of America) was used to inhibit neutrophil infiltration into tissues. Mice were injected intraperitoneally with 2 mg/kg of SB265610, once a day, over a time course that starts 1 day before the start of doxorubicin administration until the end of the study. The solution of SB265610 was prepared in sterile dimethyl sulfoxide (DMSO) to a concentration of 10 mg/ml. The aliquoted mixture was stored at −20° C. and thawed before use. The solution was mixed with corn oil (Sigma Catalog No. C8267) to minimize the toxic effect of DMSO just before injection. Injections were performed using a sterile syringe and needle (29G). The expiration date of the mixture coincided with the expiration date of the SB265610."}, "[6]": {"settings": "single bolus of Dox 15 μg/g i.p., up to 14 days"}, "[7]": {"settings": "adoptive BMT mice treated with Dox"}, "[8]": {"settings": "mice transplanted with wild-type cells, Dox cycles"}, "[9]": {"settings": "mice with Trp53^R27OH mutant blood cells vs wild-type cells, Dox regimen"}, "[10]": {"settings": "adoptive BMT mice, Dox in cycles vs saline"}, "[11]": {"settings": "Trp53 heterozygous mutant vs wild-type bone marrow, 7 days after single Dox 15 μg/g"}},
  "note": "Like-named read-outs stand apart in the source and are kept apart here.",
  "data": [
    {"smiles": "COc1cccc2c1C(=O)c1c(O)c3c(c(O)c1C2=O)C[C@@](O)(C(=O)CO)C[C@@H]3O[C@H]1C[C@H](N)[C@H](O)[C@H](C)O1", "note": "[Dox, doxorubicin]", "values": [
      {"measurement": "myocardial transcripts that encode inflammatory mediators", "setting": "[1]", "result": "upregulation"},
      {"measurement": "survival", "setting": "[2]", "result": "reduced survival"},
      {"measurement": "cardiac wall dimension and function", "setting": "C57BL6/J wild type mice; single bolus of Dox 15 μg/g i.p., 14 days", "result": "reductions"},
      {"measurement": "body weight", "setting": "C57BL6/J wild type mice; [6]", "result": "time-dependent loss"},
      {"measurement": "heart weight", "setting": "C57BL6/J wild type mice; [6]", "result": "time-dependent loss"},
      {"measurement": "peripheral blood monocytes", "setting": "C57BL6/J wild type mice; single bolus of Dox, 7-day timepoint", "result": "transient increase"},
      {"measurement": "peripheral blood neutrophils", "setting": "C57BL6/J wild type mice; single bolus of Dox, at 7 days, sustained to 14 days", "result": "increase"},
      {"measurement": "neutrophil recruitment to the heart", "setting": "C57BL6/J wild type mice; single bolus of Dox, levels maintained to 14 days", "result": "reached a peak at 7 days"},
      {"measurement": "cardiac-resident macrophage number", "setting": "C57BL6/J wild type mice; single bolus of Dox, nadir at 7 days", "result": "decreased"},
      {"measurement": "cardiac-resident monocyte number", "setting": "C57BL6/J wild type mice; single bolus of Dox, peak at 7 days", "result": "increased"},
      {"measurement": "capillary density in the myocardium", "setting": "[3]; [7]", "result": "reduced capillary density"},
      {"measurement": "fibrosis in the myocardium", "setting": "[3]; [7]", "result": "greater fibrosis"},
      {"measurement": "cardiac contractility (echocardiography)", "setting": "[3]; [8]", "result": "deterioration"},
      {"measurement": "ventricular wall (echocardiography)", "setting": "[3]; [8]", "result": "thinning"},
      {"measurement": "cardiac contractility (echocardiography)", "setting": "[3]; [9]", "result": "significant reduction"},
      {"measurement": "ventricular wall (echocardiography)", "setting": "[3]; [9]", "result": "wall thinning"},
      {"measurement": "functional impairment and wall thinning", "setting": "[3]; mice with expanding Trp53^+/− clones vs wild-type cells, Dox cycles", "result": "significantly greater"},
      {"measurement": "cardiac dysfunction after Dox", "setting": "Ccr2-deficient mice", "result": "comparable"},
      {"measurement": "proportions of donor-derived Trp53^+/− cells in bone marrow LSK, LT-HSC and GMP fractions", "setting": "[4]; Dox vs saline control, at termination of the experiment", "result": "considerably higher"},
      {"measurement": "expansion of donor-derived Trp53^+/− cells in circulating cell populations", "setting": "[4]; [10]", "result": "further expansion"},
      {"measurement": "expansion of transplanted wild-type cells in circulating cell populations", "setting": "[4]; [10]", "result": "little or no effect"},
      {"measurement": "hemoglobin levels and absolute numbers of hematopoietic cell types", "setting": "[4]; after the fourth cycle of Dox, prolonged administration", "result": "altered some of these parameters"},
      {"measurement": "expansion of donor-derived Trp53^R27OH clones in circulating leukocytes and bone marrow HSPC fractions", "setting": "[4]; serial Dox administration, adoptive BMT", "result": "selective expansion"},
      {"measurement": "heart transcripts of inflammatory mediators Il1b, Il6 and Tnf", "setting": "[5]; 8 weeks after Dox, mutant Trp53 vs wild-type cells", "result": "significant increase"},
      {"measurement": "fractional shortening and posterior wall thickness of the heart", "setting": "[5]; Trp53^+/− vs wild-type group, VAF 0.15, after Dox", "result": "significant reductions"},
      {"measurement": "neutrophil recruitment to the heart", "setting": "[5]; [11]", "result": "greater neutrophil recruitment"},
      {"measurement": "numbers of Ly6C^hi monocytes or macrophages within cardiac tissue", "setting": "[5]; [11]", "result": "no effect"}
    ]},
    {"smiles": "N#Cc1ccc(NC(=O)Nc2ccccc2Br)c2[nH]nnc12", "note": "[SB265610, 1-(2-Bromophenyl)-3-(4-cyano-1H-benzo[d] [1,2,3]triazol-7-yl)urea, N-(2-Bromophenyl)-N′-(7-cyano-1H-benzotriazol-4-yl)urea]", "values": [
      {"measurement": "neutrophil influx to the hearts", "setting": "CXCR2", "result": "reduced"},
      {"measurement": "effects of Dox on cardiac wall thinning and function", "setting": "CXCR2; 14-day timepoint", "result": "reversed"}
    ]}
  ]
}
